Experimental data published in patent publication US8288398B2, “Antiproliferative pyrimidyl, fused pyrimidyl and pyrimidyl hydrazones” (Merck Serono SA, priority 2005, dated 2012).

Key:
[1] = tested on: pancreatic cancer (MiaPaCa-2, human) cells; assay: Tumor cell proliferation assay (ATP-lite), MiaPaCa-2; format: cell-based; conditions: MIA PaCa-2, 96 h; inhibition of tumor cell growth by 50%; MiaPaCa-2 human pancreatic cancer cells; 4 days incubation; ATP-lite readout
Description: (§1) Assay 1: Tumor Cell Proliferation Assay:
(§2) Colon cancer (C26, murine), pancreatic cancer (MiaPaCa-2, human) cells were plated in 96-well white plates (Cat. No. 3917, Corning, Inc.) at 2.5×10^3 cells/well and cultured overnight at 37° C. in 5% CO2 in DMEM containing 10% FCS. Inhibitors were serially diluted in 100% DMSO and subsequently added to cells to reach a final concentration of 0.25% DMSO. Cell plates were incubated for an additional 4 days at 37° C. and 5% CO2 and cell proliferation was quantitated using the ATP-lite cell proliferation kit (Cat. No. 6016943, Perkin Elmer).
(§3) The ATPlite kit quantifies the ATP released from lysed cells by the generation of light caused by the reaction of the released ATP with the Luciferase and D-Luciferin contained in the kit. After the 4th day of incubation, the media is removed from the cell plates and replaced with 100 μL of PBS followed by 50 μL of the lysis solution. The plates are then shaken for 5 minutes on an orbital shaker followed by the addition of 50 μL of substrate solution. The plates are shaken for an additional 5 minutes followed by dark adaptation for 10 minutes and finally read on a Victor^3 V plate reader (1 second/well, Cat. No. 1420-041, Perkin Elmer).
(§4) Columns 2-3 show the concentration of compounds required to inhibit the growth of tumor cells by 50% (IC50 in μM).

[2] = tested on: Colon cancer (C26, murine) cells; assay: Tumor cell proliferation assay (ATP-lite), C26; format: cell-based; conditions: Mus musculus, 96 h, inhibition of tumor cell growth by 50%, 4 days incubation, ATP-lite readout
Description: as §1, §2, §3, §4

Structure (SMILES)	IC50 [1]	IC50 [2]
CC(=NN(C)c1nc(C(F)(F)F)nc2ccccc12)c1cccc(C)c1 [Compound 1]	< 1000 nM	< 1000 nM
CC(=NNc1nc(C(F)(F)F)nc2ccccc12)c1ccc(C)cc1 [Compound 3, N-(1-p-Tolyl-ethylidene)-N′-(2-trifluoromethyl-quinazolin-4-yl)-hydrazine]	1000 to 15000 nM	1000 to 15000 nM
COc1ccc(C(C)=NNc2nc(C)nc3ccccc23)cc1 [Compound 4, N-[1-(4-methoxy-phenyl)-ethylidene]-N′-(2-methyl-quinazolin-4-yl)-hydrazine]	1000 to 15000 nM	1000 to 15000 nM
CC(=NNc1nc(C)nc2ccccc12)c1ccc(C)cc1 [Compound 5, N-(2-Methyl-quinazolin-4-yl)-N-(1-p-tolyl-ethylidene)-hydrazine]	1000 to 15000 nM	1000 to 15000 nM
CC(=NNc1nc(C)nc2ccccc12)c1cccc(C)c1 [Compound 6, N-(2-methyl-quinazolin-4-yl)-N′-(1-m-tolyl-ethylidene)-hydrazine]	1000 to 15000 nM	1000 to 15000 nM
CC(=NNc1cc(-c2ccccc2)nc(C)n1)c1ccc(N(C)C)cc1 [Compound 8, Dimethyl-(4-{1-[(2-methyl-6-phenyl-pyrimidin-4-yl)-hydrazono]ethyl}-phenyl)amine]	< 1000 nM	< 1000 nM
COc1ccccc1-c1cc(NN=C(C)c2ccc(N(C)C)cc2)nc(C)n1 [Compound 9]	< 1000 nM	< 1000 nM
CC(=NNc1cc(-c2c(C)noc2C)nc(C)n1)c1ccc(N(C)C)cc1 [Compound 10, (4-(1-{[6-(3,5-dimethyl-isoxazol-4-yl)-2-methyl-pyrimidin-4-yl]-hydrazono}-ethyl)-phenyl]-dimethylamine]	< 1000 nM	< 1000 nM
CC(=NNc1cc(-c2ccccc2OC(F)(F)F)nc(C)n1)c1ccc(N(C)C)cc1 [Compound 11, Dimethyl-[4-(1-{[2-methyl-6-(2-trifluoromethoxy-phenyl)-pyrimidin-4-yl]-hydrazono}-ethyl)-phenyl]-amine]	< 1000 nM	< 1000 nM
CC(=NNc1cc(-c2ccccc2OC(C)C)nc(C)n1)c1ccc(N(C)C)cc1 [Compound 12, [4-(1-{[6-(2-Isopropoxy-phenyl)-2-methyl-pyrimidin-4-yl]-hydrazono}-ethyl)-phenyl]-dimethylamine]	< 1000 nM	1000 to 15000 nM
CC(=NNc1cc(-c2ccccc2F)nc(C)n1)c1ccc(N(C)C)cc1 [Compound 13, [4-(1-{[6-(2-Fluoro-phenyl)-2-methyl-pyrimidin-4-yl]-hydrazono}-ethyl)-phenyl]-dimethylamine]	< 1000 nM	< 1000 nM
CC(=NNc1cc(-c2ccccc2N)nc(C)n1)c1ccc(N(C)C)cc1 [Compound 14, [4-(1-{[6-(2-amino-phenyl)-2-methyl-pyrimidin-4-yl]-hydrazono}-ethyl)-phenyl]-dimethylamine]	< 1000 nM	< 1000 nM
COc1nc(NN=C(C)c2ccc(N(C)C)cc2)cc(-c2ccccc2)n1 [Compound 15, (4-{1-[(2-Methoxy-6-phenyl-pyrimidin-4-yl)-hydrazono]-ethyl}-phenyl)-dimethylamine]	< 1000 nM	< 1000 nM
CCc1nc(NN=C(C)c2ccc(N(C)C)cc2)cc(-c2ccccc2OC)n1 [Compound 16, [4-(1{[2-Ethyl-6-(2-methoxy-phenyl)-pyrimidin-4-yl]-hydrazono}-ethyl)-phenyl]-dimethylamine]	< 1000 nM	< 1000 nM
COc1ccccc1-c1cc(NN=C(C)c2ccc(N(C)C)cc2)ncn1 [Compound 17, [4-(1-{[6-(2-Methoxy-phenyl)-pyrimidin-4-yl]-hydrazono}-ethyl)-phenyl]dimethyl amine]	< 1000 nM	< 1000 nM
CNc1ccc(C(C)=NNc2cc(-c3ccccc3)nc(C)n2)cc1 [Compound 18, Methyl-(4-{1-[(2-methyl-6-phenyl-pyrimidin-4-yl)-hydrazono]-ethyl}-phenyl)-amine]	< 1000 nM	< 1000 nM
CC(=NNc1cc(-c2ccccc2)nc(C)n1)c1ccc(NC(N)=S)cc1 [Compound 19, 4-({1-[(2-Methyl-6-phenyl-pyrimidin-4-yl)-hydrazono]-ethyl}-phenyl)-thiourea]	1000 to 15000 nM	1000 to 15000 nM
CC(=O)Nc1ccc(C(C)=NNc2cc(-c3ccccc3)nc(C)n2)cc1 [Compound 20, N-(4-{1-[(2-Methyl-6-phenyl-pyrimidin-4-yl)-hydrazono]-ethyl}-phenyl)-acetamide]	1000 to 15000 nM	1000 to 15000 nM
CNc1ccc(C(C)=NNc2nc(C)nc(-c3ccccc3)c2N)cc1 [Compound 21, 2-Methyl-4-{N′-[1-(4-methylamino-phenyl)-ethylidene]-hydrazino}-6-phenyl-pyrimidin-5-ylamine]	< 1000 nM	< 1000 nM
CC(=NNc1cc(-c2ccccc2)nc(C)n1)c1ccc(Cl)cc1 [Compound 23, N-[1-(4-Chloro-phenyl)ethylidene]-N′-(2-methyl-6-phenyl-pyrimidin-4-yl)-hydrazine]	–	1000 to 15000 nM
COc1ccc(C(C)=NNc2cc(-c3ccccc3)nc(C)n2)cc1 [Compound 24, N-[1-(4-Methoxy-phenyl)-ethylidene]-N′-(2-methyl-6-phenyl-pyrimidin-4-yl)-hydrazine]	–	< 1000 nM
COc1cccc(-c2cc(NN=C(C)c3ccc(C)cc3)nc(C)n2)c1 [Compound 28, N-[6-(3-Methoxy-phenyl)-2-methylpyrimidin-4-yl]-N′-[1-p-tolyl-ethylidene]-hydrazine]	1000 to 15000 nM	–
COc1ccc(-c2cc(NN=C(C)c3ccc(C)cc3)nc(C)n2)cc1 [Compound 30, N-[6-(4-Methoxy-phenyl)-2-methylpyrimidin-4-yl]-N′-[1-p-tolyl-ethylidene]-hydrazine]	1000 to 15000 nM	–
CC(=NNc1cc(-c2cccnc2)nc(C)n1)c1ccc(C)cc1 [Compound 37, N-(2-Methyl-6-pyridin-3-yl-pyrimidin-4-yl)-N′-[1-p-tolyl-ethylidene]-hydrazine]	–	1000 to 15000 nM
CCc1ccc(C(C)=NNc2cc(-c3ccccc3)nc(C)n2)cc1 [Compound 43, N-[1-(4-Ethyl-phenyl)-ethylidene]-N′-(2-methyl-6-phenyl-pyrimidin-4-yl)-hydrazine]	–	< 1000 nM
CC(=NNc1cc(-c2ccccc2)nc(C)n1)c1ccc(Br)cc1 [Compound 44, N-[1-(4-Bromo-phenyl)-ethylidene]-N′-(2-methyl-6-phenyl-pyrimidin-4-yl)-hydrazine]	–	1000 to 15000 nM
CC(=NNc1cc(-c2ccccc2)nc(C)n1)c1ccc(I)cc1 [Compound 45, N-[1-(4-Iodo-phenyl)-ethylidene]-N′-(2-methyl-6-phenyl-pyrimidin-4-yl)-hydrazine]	–	1000 to 15000 nM
CC(=NNc1cc(-c2ccccc2)nc(C)n1)c1cccc(N)c1 [Compound 46, 3-{1-[(2-Methyl-6-phenyl-pyrimidin-4-yl)-hydrazono]-ethyl}-phenylamine]	–	1000 to 15000 nM
CC(=NNc1cc(-c2ccccc2)nc(C)n1)c1ccc(Cl)c(Cl)c1 [Compound 47, N-[1-(3,4-Dichloro-phenyl)-ethylidene]-N′-(2-methyl-6-phenyl-pyrimidin-4-yl)-hydrazine]	–	1000 to 15000 nM
CC(=NNc1cc(-c2ccccc2)nc(C)n1)c1ccc(O)cc1 [Compound 48, 4-{1-[(2-Methyl-6-phenyl-pyrimidin-4-yl)-hydrazono]-ethyl}-phenol]	–	1000 to 15000 nM
